Two molecules from PubChem BioAssay (NCI) can be followed below.

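Tested at 5 concentrations; 48 h exposure; 96-well plates; endpoints linearly interpolated, else capped at highest concentration. Definition used: TGI = concentration required for complete inhibition of growth.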

Among the test systems are BT-549 breast; UACC-62 melanoma; MCF7 breast; SK-OV-3 ovarian; MDA-N; HOP-92 NSCLC; MDA-MB-435; DU-145 prostate; T-47D breast; NCI-H23 lung; NCI-H460 lung; LOX IMVI melanoma; HOP-62 NSCLC; A549 NSCLC; RPMI-8226 leukemia; SNB-75 CNS; SF-295 CNS; HT29 colon; SK-MEL-2 melanoma; K-562 leukemia.
What all share (experiment): NCI-60 cell line screen, 48 h

Consider `CC(=O)N1C2=CCCC2(C)c2ccccc21` (stereo not given), for which the TGI in the experiment on BT-549 breast, with UACC-62 melanoma, in the experiment with MCF7 breast, with SK-OV-3 ovarian, in the experiment on MDA-N and in the experiment on HOP-92 NSCLC was over 100 µM throughout. Besides, the TGI with MDA-MB-435, with DU-145 prostate, in the experiment on T-47D breast, in the experiment with NCI-H23 lung, with NCI-H460 lung and with LOX IMVI melanoma was over 100 µM throughout. The TGI is over 100 µM in the experiment on HOP-62 NSCLC; over 100 µM in the experiment on A549 NSCLC; 45.6 µM in the experiment with RPMI-8226 leukemia; over 100 µM with SNB-75 CNS; over 100 µM with SF-295 CNS; over 100 µM with HT29 colon. The TGI in the experiment on SK-MEL-2 melanoma and with K-562 leukemia was over 100 µM throughout.

For `O/N=C1\CCc2cc3c(cc21)CCC3`, the TGI in the experiment with BT-549 breast, in the experiment on UACC-62 melanoma, with MCF7 breast, in the experiment on SK-OV-3 ovarian, in the experiment on MDA-N and in the experiment on HOP-92 NSCLC was over 100 µM throughout. Also, the TGI with MDA-MB-435, with DU-145 prostate, with T-47D breast, with NCI-H23 lung, with NCI-H460 lung and with LOX IMVI melanoma was over 100 µM throughout. Moreover, the TGI with HOP-62 NSCLC, with A549 NSCLC, in the experiment with RPMI-8226 leukemia, in the experiment on SNB-75 CNS, in the experiment on SF-295 CNS and in the experiment on HT29 colon was over 100 µM each time. Moreover, the TGI with SK-MEL-2 melanoma and in the experiment on K-562 leukemia was over 100 µM throughout.
